Test results published in patent US20220087996A1, “Histone acetylase p300 inhibitor and use thereof” (HINOVA PHARMACEUTICALS INC., priority 2018, published 2022).

System: CWR22RV1 cells
Experiment: Inhibition of proliferation of CWR22RV1 cells (CCK-8)
Format: cell-based, human
Settings: Homo sapiens, CWR22Rv1, 144 h, 6 days culture, read-out: IC50 against CWR22RV1 cells
Method in brief: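 CWR22RV1 cells (1500/well) were exposed to 9 three-fold compound concentrations (top final 10 μM, 0.1% DMSO) for 6 days. CCK-8 was added for 2.5 h, and absorbance was read at 450 nm. IC50 was fitted with a dose-response-inhibition equation.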

SMILES | IC50 [nM]
CNC(=O)Nc1cc2c(cc1F)[C@]1(CC2)OC(=O)N(CC(=O)N2[C@@H](C)CC[C@H]2c2ccc(F)c(F)c2)C1=O [Example 391, 1-((S)-3′-(2-((2S,5S)-2-(3,4-difluorophenyl)-5-methylpyrrolidin-1-yl)-2-oxoethyl)-6-fluoro-2′,4′-dioxo-2,3-dihydrospiro[indene-1,5′-oxazolidine]-5-yl)-3-methylurea] | > 2000
CNC(=O)Nc1ccc2c(c1)CC[C@@]21OC(=O)N(CC(=O)N2C(C)CC[C@H]2CN2CCC3(CC2)CC3(F)F)C1=O (stereo partly drawn) [Example 378, 1-((1R)-3′-(2-((2S)-2-((1,1-difluoro-6-aza-spiro[2.5]octan-6-yl)methyl)-5-methylpyrrolidin-1-yl)-2-oxoethyl)-2′,4′-dioxo-2,3-dihydrospiro[indene-1,5′-oxazolidine]-5-yl)-3-methylurea] | > 2000
CNC(=O)Nc1ccc2c(c1)CC[C@]21OC(=O)N(CC(=O)N2C[C@H]3C[C@@H]2CO3)C1=O [Example 315, 1-((S)-3′-(2-((1R,4R)-2-oxa-5-azabicyclo[2.2.1]heptan-5-yl)-2-oxoethyl)-2′,4′-dioxo-2,3-dihydrospiro[indene-1,5′-oxazolidine]-5-yl)-3-methylurea] | > 2000
CNC(=O)Nc1ccc2c(c1)CC[C@]21OC(=O)N(CC(=O)N2CCC[C@@H]2c2ccccc2)C1=O [Example 309, 1-((S)-2′,4′-dioxo-3′-(2-oxo-2-((R)-2-phenylpyrrolidin-1-yl)ethyl)-2,3-dihydrospiro[indene-1,5′-oxazolidine]-5-yl)-3-methylurea] | 500 to 2000
CNC(=O)Nc1ccc2c(c1)CC[C@@]21OC(=O)N(CC(=O)N2C(c3ccc(F)c(F)c3)CCC2(C)C)C1=O (stereo partly drawn) [Example 366, 1-((1R)-3′-(2-(5-(3,4-difluorophenyl)-2,2-dimethylpyrrolidin-1-yl)-2-oxoethyl)-2′,4′-dioxo-2,3-dihydrospiro[indene-1,5′-oxazolidine]-5-yl)-3-methylurea] | 500 to 2000
CNC(=O)Nc1ccc2c(c1)CC[C@@]21OC(=O)N(CC(=O)N2CCOC[C@@H]2c2ccccc2)C1=O [Example 107] | > 2000
CNC(=O)Nc1ccc2c(c1)CC[C@@]21OC(=O)N(CC(=O)N2C(c3ccc(F)cc3)CCC2(C)C)C1=O (stereo partly drawn) [Example 365, 1-((1R)-3′-(2-(5-(4-fluorophenyl)-2,2-dimethylpyrrolidin-1-yl)-2-oxoethyl)-2′,4′-dioxo-2,3-dihydrospiro[indene-1,5′-oxazolidine]-5-yl)-3-methylurea] | 500 to 2000
CNC(=O)Nc1ccc2c(c1)CC[C@@]21OC(=O)N(CC(=O)N2CCc3ccccc3C2)C1=O [Example 100, (R)-1-(3′-(2-(3,4-dihydroisoquinolin-2(1H)-yl)-2-oxoethyl)-2′,4′-dioxo-2,3-dihydrospiro[indene 1,5′-oxazolidine]-5-yl)-3-methylurea] | > 2000
CNC(=O)Nc1ccc2c(c1)CC[C@@]21OC(=O)N(CC(=O)N2C(C)CCC2c2ccc(C(F)(F)F)cc2C)C1=O (stereo partly drawn) [Example 352, 1-methyl-3-((1R)-3′-(2-(2-methyl-5-(2-methyl-4-(trifluoromethyl)phenyl)pyrrolidin-1-yl)-2-oxoethyl)-2′,4′-dioxo-2,3-dihydrospiro[indene-1,5′-oxazolidine]-5-yl)urea] | > 2000
CO[C@@H](C)C(=O)Nc1ccc2c(c1)CC[C@@]21OC(=O)N(CC(=O)N2[C@@H](C)CC[C@H]2c2ccc(F)cc2)C1=O [Example 377, (S)—N—((R)-3′-(2-((2S,5S)-2-(4-fluorophenyl)-5-methylpyrrolidin-1-yl)-2-oxoethyl)-2′,4′-dioxo-2,3-dihydrospiro[indene-1,5′-oxazolidine]-5-yl)-2-methoxypropionamide] | 500 to 2000
CNC(=O)Nc1ccc2c(c1)CC[C@@]21OC(=O)N(CC(=O)N2C(c3ccc(F)cc3)CC[C@@H]2CO)C1=O (mixture of isomers) [Example 360, 1-((R)-3′-(2-((R)-2-(4-fluorophenyl)-5-(hydroxymethyl)pyrrolidin-1-yl)-2-oxoethyl)-2′,4′-dioxo-2,3-dihydrospiro[indene-1,5′-oxazolidine]-5-yl)-3-methylurea] | > 2000
CNC(=O)Nc1ccc2c(c1)CC[C@@]21OC(=O)N(CC(=O)N2C(c3ccc(F)c(F)c3)CC[C@@H]2C)C1=O (stereo partly drawn) [Example 374, 1-((R)-3′-(2-((5S)-2-(3,4-difluorophenyl)-5-methylpyrrolidin-1-yl)-2-oxoethyl)-2′,4′-dioxo-2,3-dihydrospiro[indene-1,5′-oxazolidine]-5-yl)-3-methylurea] | > 2000
CNC(=O)Nc1ccc2c(c1)CC[C@@]21OC(=O)N(CC(=O)N2CCC[C@H]2c2cc(C)n[nH]2)C1=O [Example 333, 1-methyl-3-((R)-3′-(2-((S)-2-(3-methyl-1H-pyrazol-5-yl)pyrrolidin-1-yl)-2-oxoethyl)-2′,4′-dioxo-2,3-dihydrospiro[indene-1,5′-oxazolidine]-5-yl)urea] | > 2000
CNC(=O)Nc1ccc2c(c1)CC[C@@]21OC(=O)N(CC(=O)N2[C@@H](C)CC[C@H]2C2CCCCC2)C1=O [Example 357, 1-((R)-3′-(2-((2S,5S)-2-cyclohexyl-5-methylpyrrolidin-1-yl)-2-oxoethyl)-2′,4′-dioxo-2,3-dihydrospiro[indene-1,5′-oxazolidine]-5-yl)-3-methylurea] | ≤ 500
CNC(=O)Nc1ccc2c(c1)CC[C@@]21OC(=O)N(CC(=O)N2C(C)CCC2c2ccc(F)cc2C(F)(F)F)C1=O (stereo partly drawn) [Example 356, 1-((1R)-3′-(2-(2-(4-fluoro-2-(trifluoromethyl)phenyl)-5-methylpyrrolidin-1-yl)-2-oxoethyl)-2′,4′-dioxo-2,3-dihydrospiro[indene-1,5′-oxazolidine]-5-yl)-3-methylurea] | > 2000
CNC(=O)Nc1ccc2c(c1)CC[C@]21OC(=O)N(CC(=O)N2CCCC[C@@H]2c2ccccc2)C1=O [Example 1] | > 2000
Cc1noc(C)c1-c1ccc2c(c1)C1(CC1)CC21OC(=O)N(CC(=O)N(Cc2ccc(F)cc2)[C@@H](C)C(F)(F)F)C1=O (stereo partly drawn) [Example 308, 2-(5-(3,5-dimethylisoxazol-4-yl)-2′,4′-dioxo-2,3-dihydrospiro[cyclopropane-indene-1,5′-oxazole]-3′-yl)-N-(4-fluorobenzyl)-N—((S)-1,1,1-trifluoropropan-2-yl)acetamide] | ≤ 500
CNC(=O)Nc1ccc2c(c1)CC[C@@]21OC(=O)N(Cc2ncc(-c3ccccc3)[nH]2)C1=O [Example 110, (R)-1-(2′,4′-dioxo-3′-((5-phenyl-1H-imidazol-2-yl)methyl)-2,3-dihydrospiro[indene-1,5′-oxazolidine]-5-yl)-3-methylurea] | > 2000
CNC(=O)Nc1ccc2c(c1)CC[C@@]21OC(=O)N(CC(=O)N2CCCC[C@H]2c2ccccc2)C1=O [Example 5, 1-((R)-2′,4′-dioxo-3′-(2-oxo-2-((S)-2-phenylpiperidin-1-yl)ethyl)-2,3-dihydrospiro[indene-1,5-oxazolidine]-5-yl)-3-methylurea] | > 2000

Same assay, conditions: Homo sapiens, CWR22Rv1, 144 h, 6 days culture, read-out: IC50 against CWR22RV1 cells (text)

SMILES | IC50 [nM]
CNC(=O)Nc1ccc2c(c1)CC[C@@]21OC(=O)N(CC(=O)N2[C@@H](C)CC[C@H]2C2CCCCC2)C1=O [Example 357, 1-((R)-3′-(2-((2S,5S)-2-cyclohexyl-5-methylpyrrolidin-1-yl)-2-oxoethyl)-2′,4′-dioxo-2,3-dihydrospiro[indene-1,5′-oxazolidine]-5-yl)-3-methylurea] | ≤ 500
Cc1noc(C)c1-c1ccc2c(c1)C1(CC1)CC21OC(=O)N(CC(=O)N(Cc2ccc(F)cc2)[C@@H](C)C(F)(F)F)C1=O (stereo partly drawn) [Example 308, 2-(5-(3,5-dimethylisoxazol-4-yl)-2′,4′-dioxo-2,3-dihydrospiro[cyclopropane-indene-1,5′-oxazole]-3′-yl)-N-(4-fluorobenzyl)-N—((S)-1,1,1-trifluoropropan-2-yl)acetamide] | ≤ 500
